Experimental findings from patent publication US4481201A, “Pharmaceutical composition containing N,N^3 -di-(β-bromopropionyl)-N^1,N^2 -dispirotripiperazinium dichloride” (Vsesojuzny Nauchno-Issledovatelsky Khimoko-Farmasevtichesky …, priority 1981, dated 1984) are described below.

A short description of the data set: Toxicity on single and repeated administration to mice. Type of data set: in vivo. How it is done:
(3) acute toxicity of the compounds upon a single and repeated administration to white noninbred mice places into standard cages with 8 animals in each.
In the investigation of toxic properties of the compounds according to the present invention there has been determined the absolutely lethal dose (DL95), average lethal dose (DL50) and MTD. For compounds 1 and 2 there were determined DL95 and DL50 on healthy white mice with the body mass of 18-21 g at a single and repeated (once a day, daily for 7 days) intraperitoneal administration.

The mark [1] stands for this setting: mice, repeated intraperitoneal administration (once a day, daily for 7 days).
[2] abbreviates: mice, repeated intraperitoneal administration (once a day, daily for 7 days), listed as Preparation of the invention.
Setting [3] is: mice, single intraperitoneal administration.

`O=C(CCBr)N1CC[N+]2(CC1)CC[N+]1(CCN(C(=O)CCBr)CC1)CC2` [Compound 1, N,N^3 -di-(β-bromopropionyl)-N^1,N^2 -dispirotripiperazinium dichloride]: the “toxicity in comparison with prospidin” value (less toxic than prospidin, DL50 single administration to mice) stood at 2 times. Also, the “Ik index of toxic effect cumulation” value (mice, intraperitoneal administration) was 82. Moreover, the “DL50 (average lethal dose)” value under setting [1] is reported as 444 mg/kg; the “DL50 (average lethal dose)” value under setting [2] was found to be 444 mg/kg; the “DL50 (average lethal dose)” value under setting [3] is recorded as 1,924 mg/kg; the “DL50 (average lethal dose)” value (mice, single intraperitoneal administration, listed as preparation according to the present invention) was 1,924 mg/kg. Moreover, the “DL95 (absolutely lethal dose)” value under setting [1] is 577 mg/kg; the “DL95 (absolutely lethal dose)” value under setting [2] stood at 577 mg/kg; the “DL95 (absolutely lethal dose)” value under setting [3] is recorded as 2,272 mg/kg; the “DL95 (absolutely lethal dose)” value (mice, single intraperitoneal administration, listed as Preparation of the invention) is 2272 mg/kg. In addition, the LD50 (mouse, in vivo, ip, mice, single intraperitoneal administration, read-out: DL50 (average lethal dose)) was found to be 1920 mg/kg. Besides, the MTD (mouse, in vivo, ip, repeated intraperitoneal administration, read-out: MTD) is 149 mg/kg.
